Results on three molecules are retold here after US20250098679A1, “HERBICIDAL PYRIDONE DERIVATIVES” (SYNGENTA CROP PROTECTION AG, priority 2021, published 2025).

Common to all, as to format: in vivo
Holding throughout (settings): evaluated after 13 days

Assay [1] has as its system Setaria faberi (SETFA). The assay can be described thus: Pre-emergence Test, Setaria faberi (SETFA).
The subject of assay [2] is Echinochloa crus-galli (ECHCG). The assay can be described thus: Pre-emergence Test, Echinochloa crus-galli (ECHCG).
In assay [3] the test system is Zea mays (ZEAMX). The experiment in a line: Pre-emergence Test, Zea mays (ZEAMX).
In assay [4] the test system is Ipomoea hederacea (IPOHE). The assay can be described thus: Pre-emergence Test, Ipomoea hederacea (IPOHE).
Assay [5] concerns Amaranthus palmeri (AMAPA). The assay can be described thus: Pre-emergence Test, Amaranthus palmeri (AMAPA).
Assay [6] concerns Amaranthus retoflexus (AMARE). The experiment in a line: Pre-emergence Test, Amaranthus retoflexus (AMARE).
The subject of assay [7] is Setaria faberi (SETFA). The assay can be described thus: Post-emergence Test, Setaria faberi (SETFA). Set-up: key to percentage damage caused to the plant, SETFA (five-point scale): 5=81-100%, 4=61-80%, 3=41-60%, 2=21-40%, 1=0-20% damage. The method in brief:
(§1)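 Percent plant damage was rated 13 days post-application on a 1–5 scale (1=0-20%, 5=81-100%). Application used an aqueous acetone (50:50)/0.5% Tween 20 spray, normally 1000 g/ha, with controlled glasshouse conditions (24/16 °C, 14 h light, 65% humidity).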

Assay [8] relates to Echinochloa crus-galli (ECHCG). The experiment in a line: Post-emergence Test, Echinochloa crus-galli (ECHCG). More on the design: key to percentage damage caused to the plant, ECHCG (five-point scale): 5=81-100%, 4=61-80%, 3=41-60%, 2=21-40%, 1=0-20% damage. The method in brief: as §1
Assay [9] relates to Zea mays (ZEAMX). The experiment in a line: Post-emergence Test, Zea mays (ZEAMX). Set-up: key to percentage damage caused to the plant, ZEAMX (five-point scale): 5=81-100%, 4=61-80%, 3=41-60%, 2=21-40%, 1=0-20% damage. The method, boiled down:
as §1

Assay [10] deals with Ipomoea hederacea (IPOHE). The experiment in a line: Post-emergence Test, Ipomoea hederacea (IPOHE). Set-up: key to percentage damage caused to the plant, IPOHE (five-point scale): 5=81-100%, 4=61-80%, 3=41-60%, 2=21-40%, 1=0-20% damage. The method, boiled down:
as §1

The test system of assay [11] is Amaranthus palmeri (AMAPA). The experiment in a line: Post-emergence Test, Amaranthus palmeri (AMAPA). Set-up: key: 5=81-100%, 4=61-80%, 3=41-60%, 2=21-40%, 1=0-20% damage. The method in brief: as §1
Assay [12] concerns Amaranthus retoflexus (AMARE). The assay can be described thus: Post-emergence Test, Amaranthus retoflexus (AMARE). Set-up: key to percentage damage caused to the plant, AMARE (five-point scale): 5=81-100%, 4=61-80%, 3=41-60%, 2=21-40%, 1=0-20% damage. The method in brief: as §1

The structures appear in SMILES notation.

Turning to `CCn1c(Cn2nc(Cl)cc2C(F)(F)F)cc(=O)c(C(=O)O)c1-c1ccc(Cl)c(Cl)c1` [Compound 104, 6-[[3-chloro-5-(trifluoromethyl)pyrazol-1-yl]methyl]-2-(3,4-dichlorophenyl)-1-ethyl-4-oxo-pyridine-3-carboxylic acid], the “Pre-emergence Test SETFA, percentage damage caused to the plant (five-point scale)” value in the assay with Setaria faberi (SETFA) [1] (250 g/Ha (*)) and in the assay with Setaria faberi (SETFA) [1] (1000 g/ha) was 5 (5=81-100%) throughout. Further, the “Pre-emergence Test ECHCG, percentage damage caused to the plant (five-point scale)” value in [2] (250 g/Ha (*)) and in assay [2] (1000 g/ha) was 5 (5=81-100%) in each case. Besides, the results for the “Pre-emergence Test ZEAMX, percentage damage caused to the plant (five-point scale)” value in the assay with Zea mays (ZEAMX) [3] (250 g/Ha (*)) and with Zea mays (ZEAMX) [3] (1000 g/ha) were 2 (2=21-40%) and 5 (5=81-100%), respectively. In addition, the “Pre-emergence Test IPOHE, percentage damage caused to the plant (five-point scale)” value in [4] (250 g/Ha (*)) is on record as 1 (1=0-20%); in assay [4] (1000 g/ha), 4 (4=61-80%). Also, the “Pre-emergence Test AMAPA, percentage damage caused to the plant (five-point scale)” value in [5] (250 g/Ha (*)) and in [5] (1000 g/ha) was 1 (1=0-20%) in each case. Further, the “Pre-emergence Test AMARE, percentage damage caused to the plant (five-point scale)” value in assay [6] (250 g/Ha (*)) and in assay [6] (1000 g/ha) was 1 (1=0-20%) throughout. Besides, the “percentage damage caused to the plant, SETFA (five-point scale)” value in the assay on Setaria faberi (SETFA) [7] (250 g/Ha) and in the assay on Setaria faberi (SETFA) [7] (1000 g/ha) was 4 (4=61-80%) each time. Further, the “percentage damage caused to the plant, ECHCG (five-point scale)” value in [8] (250 g/Ha) and in [8] (1000 g/ha) was 4 (4=61-80%) in each case. In addition, the “percentage damage caused to the plant, ZEAMX (five-point scale)” value with Zea mays (ZEAMX) [9] (250 g/Ha) and in the assay with Zea mays (ZEAMX) [9] (1000 g/ha) was 4 (4=61-80%) each time. For the same molecule, the figures for the “percentage damage caused to the plant, IPOHE (five-point scale)” value in assay [10] (250 g/Ha) and in assay [10] (1000 g/ha) were 4 (4=61-80%) and 3 (3=41-60%), respectively. Also, the “percentage damage caused to the plant, AMAPA (five-point scale)” value in assay [11] (250 g/Ha) is on record as 3 (3=41-60%); in assay [11] (1000 g/ha), 4 (4=61-80%). Also, the “percentage damage caused to the plant, AMARE (five-point scale)” value in [12] (250 g/Ha) is recorded as 3 (3=41-60%); in assay [12] (1000 g/ha), 4 (4=61-80%).
For the molecule `CCn1c(Cn2nc(C(F)(F)F)nc2C)cc(=O)c(C(=O)O)c1-c1ccc(Cl)c(Cl)c1` [Compound 108, 2-(3,4-dichlorophenyl)-1-ethyl-6-[[5-methyl-3-(trifluoromethyl)-1,2,4-triazol-1-yl]methyl]-4-oxo-pyridine-3-carboxylic acid], the “Pre-emergence Test SETFA, percentage damage caused to the plant (five-point scale)” value with Setaria faberi (SETFA) [1] (1000 g/ha) is on record as 0. For the same molecule, the “Pre-emergence Test ECHCG, percentage damage caused to the plant (five-point scale)” value in [2] (1000 g/ha) stood at 0. Also, the “Pre-emergence Test ZEAMX, percentage damage caused to the plant (five-point scale)” value in the assay with Zea mays (ZEAMX) [3] (1000 g/ha) is recorded as 0. The “Pre-emergence Test IPOHE, percentage damage caused to the plant (five-point scale)” value in assay [4] (1000 g/ha) was 0. In [5] (1000 g/ha), the “Pre-emergence Test AMAPA, percentage damage caused to the plant (five-point scale)” value came to 0. Further, the “Pre-emergence Test AMARE, percentage damage caused to the plant (five-point scale)” value in assay [6] (1000 g/ha) is on record as 0. The “percentage damage caused to the plant, SETFA (five-point scale)” value was 1 (1=0-20%) in the assay on Setaria faberi (SETFA) [7] (250 g/Ha) and 2 (2=21-40%) with Setaria faberi (SETFA) [7] (1000 g/ha). Besides, the “percentage damage caused to the plant, ECHCG (five-point scale)” value in assay [8] (250 g/Ha) is reported as 1 (1=0-20%); in [8] (1000 g/ha), 2 (2=21-40%). Besides, the “percentage damage caused to the plant, ZEAMX (five-point scale)” value in the assay with Zea mays (ZEAMX) [9] (250 g/Ha) was 0; in the assay on Zea mays (ZEAMX) [9] (1000 g/ha) it was 1 (1=0-20%). Further, the “percentage damage caused to the plant, IPOHE (five-point scale)” value in [10] (250 g/Ha) and in [10] (1000 g/ha) was 0 each time. Moreover, the “percentage damage caused to the plant, AMAPA (five-point scale)” value in [11] (250 g/Ha) and in [11] (1000 g/ha) was 0 in each case. Besides, the “percentage damage caused to the plant, AMARE (five-point scale)” value in assay [12] (250 g/Ha) and in assay [12] (1000 g/ha) was 0 throughout.
With `CCn1c(Cn2cc(C(F)F)cn2)cc(=O)c(C(=O)O)c1-c1ccc(Cl)c(Cl)c1` [Compound 109, 2-(3,4-dichlorophenyl)-6-[[4-(difluoromethyl)pyrazol-1-yl]methyl]-1-ethyl-4-oxo-pyridine-3-carboxylic acid], the “Pre-emergence Test SETFA, percentage damage caused to the plant (five-point scale)” value was 2 (2=21-40%) with Setaria faberi (SETFA) [1] (250 g/Ha (*)) and 5 (5=81-100%) in the assay with Setaria faberi (SETFA) [1] (1000 g/ha). Also, the “Pre-emergence Test ECHCG, percentage damage caused to the plant (five-point scale)” value in assay [2] (250 g/Ha (*)) is 3 (3=41-60%); in [2] (1000 g/ha), 5 (5=81-100%). The “Pre-emergence Test ZEAMX, percentage damage caused to the plant (five-point scale)” value in the assay on Zea mays (ZEAMX) [3] (250 g/Ha (*)) and in the assay on Zea mays (ZEAMX) [3] (1000 g/ha) was 0 throughout. For the same molecule, the “Pre-emergence Test IPOHE, percentage damage caused to the plant (five-point scale)” value was 1 (1=0-20%) in assay [4] (250 g/Ha (*)) and 4 (4=61-80%) in assay [4] (1000 g/ha). Besides, the “Pre-emergence Test AMAPA, percentage damage caused to the plant (five-point scale)” value in assay [5] (250 g/Ha (*)) and in assay [5] (1000 g/ha) was 0 each time. Also, the “Pre-emergence Test AMARE, percentage damage caused to the plant (five-point scale)” value in assay [6] (250 g/Ha (*)) and in assay [6] (1000 g/ha) was 0 throughout. The results for the “percentage damage caused to the plant, SETFA (five-point scale)” value with Setaria faberi (SETFA) [7] (250 g/Ha) and in the assay on Setaria faberi (SETFA) [7] (1000 g/ha) were 1 (1=0-20%) and 4 (4=61-80%), respectively. For the same molecule, the “percentage damage caused to the plant, ECHCG (five-point scale)” value was 3 (3=41-60%) in assay [8] (250 g/Ha) and 4 (4=61-80%) in assay [8] (1000 g/ha). In addition, the “percentage damage caused to the plant, ZEAMX (five-point scale)” value in the assay with Zea mays (ZEAMX) [9] (250 g/Ha) is listed as 1 (1=0-20%); with Zea mays (ZEAMX) [9] (1000 g/ha), 3 (3=41-60%). The “percentage damage caused to the plant, IPOHE (five-point scale)” value in assay [10] (250 g/Ha) is on record as 2 (2=21-40%); in [10] (1000 g/ha) it was 3 (3=41-60%). In addition, the “percentage damage caused to the plant, AMAPA (five-point scale)” value in [11] (250 g/Ha) is given as 0; in assay [11] (1000 g/ha), 3 (3=41-60%). Also, the “percentage damage caused to the plant, AMARE (five-point scale)” value is on record as 0 in assay [12] (250 g/Ha) and 1 (1=0-20%) in assay [12] (1000 g/ha).
